# Reference: publication PMC9388906, “Dual inhibition of the Echinococcus multilocularis energy metabolism” (Frontiers in Veterinary Science, 2022)
# Like-named read-outs stand apart in the source and are kept apart here.
# Columns and labels:
# [1] = tested on: Reuber rat hepatoma (Rh) cells; experiment: Mammalian cell toxicity, Alamar Blue assay; type: cell-based
# Method: Compounds were added in a serial dilution (30–0.23 μM, 1:2 dilution steps) and in triplicates. Plates were incubated at 37°C, 5% CO2 and humid atmosphere for 5 days. Resazurin was added to a final concentration of 10 mg/L to each well, and fluorescence measured at 530 nm on an Enspire multilabel plate reader over 3 h. By using Microsoft Office Excel 2010 and a logit-log transformation of the relative growth, IC50 values were calculated. The test was performed twice for each compound, and respective averages and standard deviations are given.
# [2] = tested on: E. multilocularis metacestodes (isolate H95); experiment: PGI assay (damage marker release), metacestodes, isolate H95; type: cell-based, Echinococcus multilocularis; conditions: for cytotoxicity at 10 µM: read-out: Metacestodes, PGI assay, relative to positive control Tx-100; for EC50: read-out: EC50 metacestodes
# Method: (§1) To assess the in vitro efficacy of ELQs against E. multilocularis, (a) the damage-marker phosphoglucose isomerase (PGI) assay was applied against metacestodes, and (b) the germinal layer (GL) cell viability assay was applied to measure effects on isolated GL cells. Both assays are described in more detail below. The drug testing strategy was as follows: PGI assay was first conducted for overview screening at 10 μM with the parasite isolates H95 and Sval. The GL cell viability assay was performed at 0.1 μM with both isolates H95 and Sval.
# (§2) The PGI assay measures the amount of PGI that metacestodes release into the medium when damaged ([17], [32]). The purification and in vitro drug incubation of E. multilocularis metacestodes was conducted according to Stadelmann et al. ([32]). In short, cultures were applied for in vitro drug testing at the age of 6-8 weeks. E. multilocularis metacestodes were therefore purified by the addition of 2% saccharose and washed extensively with PBS. Purified metacestodes were suspended 1:3 with DMEM (without phenol red, supplemented with 100 U/mL penicillin, 100 μg/mL streptomycin) and distributed in 48-well plates (1 mL/well, thus 300 μL pure metacestode vesicles per well). […] The corresponding DMSO concentration was used as negative control and Tx-100 (0.1% final concentration) was used for total damage (positive control). […] After 5 days, relative PGI activities were measured and calculated as percentage of the Tx-100 control as described previously in Rufener et al. ([17]). They were calculated as mean values and standard deviations for each triplicate. […] EC50 measurements were performed twice, and averages and standard deviations of these repeated tests are given.
# [3] = tested on: E. multilocularis GL cells (isolate H95); experiment: GL cell viability assay (CellTiter-Glo), isolate H95; type: cell-based, Echinococcus multilocularis; conditions: for viability at 0.1 µM: Echinococcus multilocularis, 120 h, read-out: GL cells, viability via ATP measurements, relative to DMSO control
# Method: as §1
# (§3) The isolation of E. multilocularis GL cells was done as described previously ([17]) with minor modifications. Fifteen units of GL cells were distributed to each well of a 384 well plate in a total volume of 12.5 μL conditioned medium. The different ELQs were added to the wells to 0.1 μM, in quadruplicates. As a negative control 0.1% DMSO was used. The 384-well plate was incubated for 5 days at 37°C under humid nitrogen atmosphere. Thereafter, viability of the GL cells under different drug treatments was assessed by CellTiter-Glo® (Promega AG, Dübendorf, Switzerland). The CellTiter-Glo reagent was complemented with 1% Tx-100. The luciferase bioluminescence was measured at 530 nm by using the Enspire multilabel reader (PerkinElmer Life Sciences, Schwerzenbach, Switzerland). Using Microsoft Excel, the blank values were subtracted from the experimental values and the relative viability compared to DMSO was calculated. Viabilities were calculated as mean values and standard deviations for each quadruplicate.
# [4] = tested on: E. multilocularis GL cells (isolate Sval); experiment: GL cell viability assay (CellTiter-Glo), isolate Sval; type: cell-based, Echinococcus multilocularis; conditions: for viability at 0.1 µM: Echinococcus multilocularis, 120 h, read-out: GL cells, viability via ATP measurements, relative to DMSO control
# Method: as §1, §3
# [5] = tested on: E. multilocularis metacestodes (isolate Sval); experiment: PGI assay (damage marker release), metacestodes, isolate Sval; type: cell-based, Echinococcus multilocularis; conditions: for cytotoxicity at 10 µM: Echinococcus multilocularis, 120 h, read-out: Metacestodes, PGI assay, relative to positive control Tx-100; for Activity in PGI assay (activity call): threshold >20% of Tx-100
# Method: as §1, §2
# [6] = tested on: E. multilocularis metacestodes; experiment: Succinate concentrations in culture supernatants (malate dismutation activity); type: cell-based, Echinococcus multilocularis; conditions: 10 μM; 5 days; anaerobic
# Method: Both compounds were tested either alone or in combination at 10 μM with the above-described PGI assay for 5 days for their activity against E. multilocularis metacestodes. PGI assays were done in triplicates and two times independently. […] To assess direct effects on the MD, succinate levels were measured in the supernatants of the PGI assay, as described below. To determine whether differences between groups were significant, data was subjected to student's t-test analysis and P-values below 0.05 are given.
# Succinate measurements in supernatants of drug-treated E. multilocularis metacestodes was performed with the “Succinic Acid Assay Kit” (Megazyme, Bray, Ireland). […] 20 μL of each diluted (1:20) sample or standard was used in triplicate for succinate measurements in 96-well plates (flat bottom, Greiner Bio-One GmbH, Frickenhausen, Germany). The reaction mix buffer was prepared as described in the supplier manual: per well 180 μL H2O, 20 μL solvent 1 (buffer, pH 8.4, sodium azide 0.02% w/v), 20 μL solvent 2 (NADH plus stabilizer), 20 μL solvent 3 (ATP, PEP, and CoA) and 2 μL solvent 4 (pyruvate kinase plus L-lactate dehydrogenase suspension) were added. After a 180 s pre-incubation time, a first measurement at 340 nm was done on an EnSpire multilabel plate reader (PerkinElmer Life Sciences, Schwerzenbach, Switzerland). 10 μL solvent 5 (succinyl-CoA synthetase suspension; 1:10 diluted) were then added to each well and the plate was read at 340 nm for 1 h every minute. […] Succinate levels are shown as mean values with standard deviations of biological triplicates. To determine whether differences between groups were significant, data was subjected to student's t-test analysis and P-values below 0.05 are given.
# [7] = tested on: E. multilocularis metacestodes; experiment: PGI assay, single and combination treatment under normoxic and anaerobic conditions; type: cell-based, Echinococcus multilocularis; conditions: 10 μM each; 5 days; anaerobic (0% O2)
# Method: The PGI assay measures the amount of PGI that metacestodes release into the medium when damaged ([17], [32]). The purification and in vitro drug incubation of E. multilocularis metacestodes was conducted according to Stadelmann et al. ([32]). In short, cultures were applied for in vitro drug testing at the age of 6-8 weeks. E. multilocularis metacestodes were therefore purified by the addition of 2% saccharose and washed extensively with PBS. Purified metacestodes were suspended 1:3 with DMEM (without phenol red, supplemented with 100 U/mL penicillin, 100 μg/mL streptomycin) and distributed in 48-well plates (1 mL/well, thus 300 μL pure metacestode vesicles per well). […] The corresponding DMSO concentration was used as negative control and Tx-100 (0.1% final concentration) was used for total damage (positive control). […] After 5 days, relative PGI activities were measured and calculated as percentage of the Tx-100 control as described previously in Rufener et al. ([17]). They were calculated as mean values and standard deviations for each triplicate. EC50 calculations were calculated based on logit-log transformed values in Microsoft Office Excel 2010. EC50 measurements were performed twice, and averages and standard deviations of these repeated tests are given.
# For double inhibition of the mitochondrial energy pathways of E. multilocularis, quinazoline as an inhibitor of the anaerobic MD ([29]) was applied in combination with ELQ-400 as an inhibitor of the ETC. Both compounds were tested either alone or in combination at 10 μM with the above-described PGI assay for 5 days for their activity against E. multilocularis metacestodes. PGI assays were done in triplicates and two times independently. […] Results of the assays were calculated as mean values and standard deviations for each biological triplicate were calculated as relative percentage to the Tx-100 control. To assess direct effects on the MD, succinate levels were measured in the supernatants of the PGI assay, as described below. […]
# [8] = tested on: E. multilocularis metacestodes; set-up: method as in PMID 30396011; conditions: TEM of metacestodes; cited from earlier work
# [9] = Rattus norvegicus, 120 h, confluent Rh cells, Alamar blue, 5 days, range tested 30–0.23 μM, mean (SD) of two tests, read-out: IC50 Rh confluent
# [10] = Rattus norvegicus, 120 h, preconfluent Rh cells, Alamar blue, 5 days, range tested 30–0.23 μM, mean (SD) of two tests, read-out: IC50 Rh preconfluent
# [11] = Echinococcus multilocularis, 120 h, isolate H95, 10 μM, 5 days, normoxic, mean (SD) of triplicates, active if >20%
# [12] = Echinococcus multilocularis, 120 h, isolate H95, PGI assay, 5 days, range tested 30–0.12 μM, mean (SD) of two tests
# [13] = isolate H95, 0.1 μM, 5 days, nitrogen atmosphere, mean (SD), active if <30%
# [14] = isolate Sval, 0.1 μM, 5 days, nitrogen atmosphere, mean (SD), active if <30%
# [15] = isolate Sval, 10 μM, 5 days, normoxic, mean (SD) of triplicates, active if >20%
# [16] = isolate H95, 10 μM, 5 days, normoxic, mean (SD) of triplicates, active if >20%
# [17] = Echinococcus multilocularis, 120 h
smiles,measurement,setting,value
CCCCCCCc1c(C)[nH]c2cccc(F)c2c1=O [ELQ-136],IC50,[1]; [9],> 30 µM
same,IC50,[1]; [10],> 30 µM
same,cytotoxicity at 10 µM,[2]; [11],21.4%
same,EC50,[2]; [12],0.22 µM
same,viability at 0.1 µM,[3]; [13],8.4%
same,viability at 0.1 µM,[4]; [14],15.1%
same,cytotoxicity at 10 µM,[5]; [15],7%
"c1ccc2ncncc2c1 [quinazoline, reference compound]",Release of succinate by metacestodes compared to DMSO control,[6],significant reduction
same,PGI release of metacestodes relative to Tx-100,[7],no PGI release
CCCCCCCc1c(C)[nH]c2cc(OC)c(F)cc2c1=O [ELQ-433],cytotoxicity at 10 µM,[2]; [11],4.3%
same,viability at 0.1 µM,[3]; [13],96.4%
same,viability at 0.1 µM,[4]; [14],62.1%
same,cytotoxicity at 10 µM,[5]; [15],1.8%
COc1cc2[nH]c(C)c(-c3ccc(Oc4ccc(OC(F)(F)F)cc4)cc3)c(=O)c2cc1F [ELQ-316],"Metacestodes, PGI assay, relative to positive control Tx-100",[2]; [16],21.4 (0.1) %
same,"GL cells, viability via ATP measurements, relative to DMSO control",[3]; [13],81.1 (9.5) %
same,"GL cells, viability via ATP measurements, relative to DMSO control",[4]; [14],58 (5.3) %
same,"Metacestodes, PGI assay, relative to positive control Tx-100",[5]; [15],4.6 (1.3) %
CCCCCCCCCCCc1c(C)[nH]c2cc(F)cc(F)c2c1=O [ELQ-437],IC50,[1]; [9],> 30 µM
same,IC50,[1]; [10],> 30 µM
same,cytotoxicity at 10 µM,[2]; [11],37.6%
same,EC50,[2]; [12],1.71 µM
same,viability at 0.1 µM,[3]; [13],19.7%
same,viability at 0.1 µM,[4]; [14],19.1%
same,cytotoxicity at 10 µM,[5]; [15],33.1%
same,Activity in PGI assay (activity call),"[5]; isolate Sval, 10 μM",activity
Cc1[nH]c2ccccc2c(=O)c1-c1ccc(Oc2ccc(OC(F)(F)F)cc2)cc1 [ELQ-271],IC50,"[1]; confluent Rh cells, Alamar blue, 5 days, range tested 30–0.23 μM, mean (SD) of two tests, read-out: IC50 Rh confluent",> 30 µM
same,IC50,"[1]; preconfluent Rh cells, Alamar blue, 5 days, range tested 30–0.23 μM, mean (SD) of two tests, read-out: IC50 Rh preconfluent",8.64 µM
same,"Metacestodes, PGI assay, relative to positive control Tx-100",[2]; [16],33 (1.7) %
same,EC50,"[2]; isolate H95, PGI assay, 5 days, range tested 30–0.12 μM, mean (SD) of two tests",0.24 µM
same,"GL cells, viability via ATP measurements, relative to DMSO control",[3]; [13],2.7 (1.6) %
same,"GL cells, viability via ATP measurements, relative to DMSO control",[4]; [14],25.4 (7.2) %
same,"Metacestodes, PGI assay, relative to positive control Tx-100",[5]; [15],56.9 (4.3) %
same,Activity in PGI assay (activity call),"[5]; isolate Sval, 10 μM",activity
CCCCCCCc1c(C)[nH]c2cc(F)cc(F)c2c1=O [ELQ-121],IC50,"[1]; Rattus norvegicus, 120 h, read-out: IC50 Rh confluent",> 30 µM
same,IC50,"[1]; Rattus norvegicus, 120 h, read-out: IC50 Rh preconfluent",> 30 µM
same,EC50,[2]; [17],1.19 µM
same,cytotoxicity at 10 µM,[2]; [17],15.2%
same,viability at 0.1 µM,[3],1%
same,viability at 0.1 µM,[4],7.3%
same,cytotoxicity at 10 µM,[5],20.9%
same,Activity in PGI assay (activity call),"[5]; isolate Sval, 10 μM",activity
CC(C)(C)[C@H]1CC[C@H](CC2=C(O)C(=O)c3ccccc3C2=O)CC1 [buparvaquone],Concentration already affecting the parasite ultrastructure (electron dense mitochondrial matrix),[8],0.3 µM
CCCCCCCc1c(C)[nH]c2cc(OC)ccc2c1=O [ELQ-100],cytotoxicity at 10 µM,[2]; [11],1.4%
same,viability at 0.1 µM,[3]; [13],100%
same,viability at 0.1 µM,[4]; [14],57.9%
same,cytotoxicity at 10 µM,[5]; [15],0%
COc1cc2[nH]c(C)c(-c3ccc(Oc4ccc(OC(F)(F)F)cc4)cc3)c(=O)c2cc1Cl [ELQ-300],"Metacestodes, PGI assay, relative to positive control Tx-100",[2]; [16],6.6 (2.2) %
same,"GL cells, viability via ATP measurements, relative to DMSO control",[3]; [13],84.0 (7.0) %
same,"GL cells, viability via ATP measurements, relative to DMSO control",[4]; [14],46.9 (9.6) %
same,"Metacestodes, PGI assay, relative to positive control Tx-100",[5]; [15],7.6 (1.1) %
CCCCCCCCCCCc1c(C)[nH]c2cc(OC)c(F)cc2c1=O [ELQ-435],cytotoxicity at 10 µM,[2]; [11],2.6%
same,viability at 0.1 µM,[3]; [13],15.6%
same,viability at 0.1 µM,[4]; [14],80.1%
same,cytotoxicity at 10 µM,[5]; [15],0%
CCCCCCCCCCCc1c(C)[nH]c2ccccc2c1=O [ELQ-436],cytotoxicity at 10 µM,[2]; [11],3.4%
same,viability at 0.1 µM,[3]; [13],14%
same,viability at 0.1 µM,[4]; [14],16.4%
same,cytotoxicity at 10 µM,[5]; [15],3.1%
CCCCCCCCCCCc1c(C)[nH]c2cc(OC)c(Cl)cc2c1=O [ELQ-434],cytotoxicity at 10 µM,[2]; [11],0.4%
same,viability at 0.1 µM,[3]; [13],33.3%
same,viability at 0.1 µM,[4]; [14],81.3%
same,cytotoxicity at 10 µM,[5]; [15],0.6%
CCCCCCCc1c(C)[nH]c2ccccc2c1=O [ELQ-127],cytotoxicity at 10 µM,[2]; [11],11.7%
same,viability at 0.1 µM,[3]; [13],17.2%
same,viability at 0.1 µM,[4]; [14],40.4%
same,cytotoxicity at 10 µM,[5]; [15],2.5%
